# Measurements taken from patent US20230271941A1, “COMPOUNDS AND COMPOSITIONS FOR TREATING CONDITIONS ASSOCIATED WITH STING ACTIVITY” (IFM Due, Inc., priority 2020, published 2023).
# Target: T1, hSTING (Homo sapiens, UniProt Q86WV6, G230A/H232R/R293Q/R71H)
# T1 construct: host or cells: THP1-Dual KO-IFNAR2 cells
# Test: STING reporter assay: THP1-Dual KO-IFNAR2 cells stimulated with 2′3′cGAMP, luciferase reporter activity
# Format: cell-based
# Conditions: 15 μM 2′3′cGAMP transfected with Lipofectamine 2000, 24 h, luciferase reporter (QUANTI-Luc)
# Protocol: STING pathway activation by the compounds described herein was measured using THP1-Dual™ cells (KO-IFNAR2).
# THP1-Dual™ KO-IFNAR2 Cells (obtained from invivogen) were maintained in RPMI, 10% FCS, 5 ml P/S, 2 mM L-glut, 10 mM Hepes, and 1 mM sodium pyruvate. Compounds were spotted in empty 384 well tissue culture plates (Greiner 781182) by Echo for a final concentration of 0.0017-100 μM. Cells were plated into the TC plates at 40 μL per well, 2×10E6 cells/mL. For activation with STING ligand, 2′3′cGAMP (MW 718.38, obtained from Invivogen), was prepared in Optimem media.
# The following solutions were prepared for each 1×384 plate: • Solution A: 2 mL Optimem with one of the following stimuli: • 60 μL of 10 mM 2′3′cGAMP→150 μM stock • Solution B: 2 mL Optimem with 60 μL Lipofectamine 2000→Incubate 5 min at RT
# 2 mL of solution A and 2 ml Solution B was mixed and incubated for 20 min at room temperature (RT). 20 μL of transfection solution (A+B) was added on top of the plated cells, with a final 2′3′cGAMP concentration of 15 μM. The plates were then centrifuged immediately at 340 g for 1 minute, after which they were incubated at 37° C., 5% CO2, >98% humidity for 24 h. Luciferase reporter activity was then measured. EC50 values were calculated by using standard methods known in the art.
# Luciferase reporter assay: 10 μL of supernatant from the assay was transferred to white 384-plate with flat bottom and squared wells. One pouch of QUANTI-Luc™ Plus was dissolved in 25 mL of water. 100 μL of QLC Stabilizer per 25 mL of QUANTI-Luc™Plus solution was added. 50 μL of QUANTI-Luc™ Plus/QLC solution per well was then added. Luminescence was measured on a Platereader (e.g., Spectramax I3X (Molecular Devices GF3637001)).
# Luciferase reporter activity was then measured. EC50 values were calculated by using standard methods known in the art.
# T1 sequence (Q86WV6 whole entry R71H/G230A/H232R/R293Q): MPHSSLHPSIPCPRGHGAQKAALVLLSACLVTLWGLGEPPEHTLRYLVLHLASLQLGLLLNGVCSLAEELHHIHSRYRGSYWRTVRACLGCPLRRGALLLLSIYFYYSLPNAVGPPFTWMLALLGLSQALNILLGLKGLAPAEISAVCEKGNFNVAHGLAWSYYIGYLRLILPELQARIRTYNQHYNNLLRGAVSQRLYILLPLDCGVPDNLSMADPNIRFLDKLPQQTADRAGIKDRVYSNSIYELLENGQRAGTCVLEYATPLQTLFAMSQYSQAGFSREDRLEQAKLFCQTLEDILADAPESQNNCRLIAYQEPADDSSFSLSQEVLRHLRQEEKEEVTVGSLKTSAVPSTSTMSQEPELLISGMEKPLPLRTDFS
row,Compound,EC50 [nM]
1,"CC(c1ccc(C(F)(F)F)cc1)n1cc(C(=O)Nc2c[nH]c3cc(F)c(F)cc23)cn1 (single isomer, unassigned) [Compound 120, (R or S)-N-(5,6-difluoro-1H-indol-3-yl)-1-(1-(4-(trifluoromethyl)phenyl)ethyl)-1H-pyrazole-4-carboxamide]",200 to 1000
2,"O=C(Nc1c[nH]c2cc(F)c(F)cc12)c1csc(-c2cccc(C(F)(F)F)c2)n1 [Compound 101, N-(5,6-difluoro-1H-indol-3-yl)-2-(3-(trifluoromethyl)phenyl)thiazole-4-carboxamide]",200 to 1000
3,"O=C(Nc1c[nH]c2cc(Cl)ccc12)c1cnn(Cc2ccc(C(F)(F)F)cc2)c1 [Compound 102, N-(6-chloro-1H-indol-3-yl)-1-[[4-(trifluoromethyl)phenyl]methyl]pyrazole-4-carboxamide]",200 to 1000
4,"O=C(Nc1c[nH]c2cc(F)ccc12)c1ccn(Cc2ccc(C(F)(F)F)cc2)n1 [Compound 103, N-(6-fluoro-1H-indol-3-yl)-1-(4-(trifluoromethyl)benzyl)-1H-pyrazole-3-carboxamide]",200 to 1000
5,"O=C(Nc1c[nH]c2cc(F)ccc12)c1cn(Cc2ccc(C(F)(F)F)cc2)cn1 [Compound 104, N-(6-fluoro-1H-indol-3-yl)-1-(4-(trifluoromethyl)benzyl)-1H-imidazole-4-carboxamide]",200 to 1000
6,"O=C(Nc1c[nH]c2cc(F)c(F)cc12)c1cn(Cc2ccc(C(F)(F)F)cc2)nn1 [Compound 105, N-(5,6-difluoro-1H-indol-3-yl)-1-(4-(trifluoromethyl)benzyl)-1H-1,2,3-triazole-4-carboxamide]",200 to 1000
7,"O=C(Nc1c[nH]c2cc(F)c(F)cc12)c1cn(-c2ccc(C(F)(F)F)cc2)nn1 [Compound 106, N-(5,6-difluoro-1H-indol-3-yl)-1-(4-(trifluoromethyl)phenyl)-1H-1,2,3-triazole-4-carboxamide]",200 to 1000
8,"O=C(Nc1c[nH]c2cc(Cl)c(F)cc12)c1cnn(Cc2ccc(C(F)(F)F)cc2)c1 [Compound 107, N-(6-chloro-5-fluoro-1H-indol-3-yl)-1-(4-(trifluoromethyl)benzyl)-1H-pyrazole-4-carboxamide]",200 to 1000
9,"O=C(Nc1c[nH]c2cc(F)c(F)cc12)c1cc(-c2ccc(Cl)cc2)n[nH]1 [Compound 108, 3-(4-chlorophenyl)-N-(5,6-difluoro-1H-indol-3-yl)-1H-pyrazole-5-carboxamide]",200 to 1000
10,"O=C(Nc1c[nH]c2cc(F)c(F)cc12)c1cc(-c2ccccn2)on1 [Compound 109, N-(5,6-difluoro-1H-indol-3-yl)-5-(pyridin-2-yl)-1,2-oxazole-3-carboxamide]",200 to 1000
11,"O=C(Nc1c[nH]c2cc(F)c(F)cc12)c1ncn(-c2ccccc2)n1 [Compound 110, N-(5,6-difluoro-1H-indol-3-yl)-1-phenyl-1H-1,2,4-triazole-3-carboxamide]",40 to 200
12,"O=C(Nc1c[nH]c2cc(F)c(F)cc12)c1csc(-c2ccccc2)n1 [Compound 111, N-(5,6-difluoro-1H-indol-3-yl)-2-phenyl-1,3-thiazole-4-carboxamide]",1000 to 5000
13,"O=C(Nc1c[nH]c2cc(F)c(F)cc12)c1csc(Cc2ccccc2)n1 [Compound 112, 2-benzyl-N-(5,6-difluoro-1H-indol-3-yl)-1,3-thiazole-4-carboxamide]",1000 to 5000
14,"Cn1nc(C(=O)Nc2c[nH]c3cc(F)c(F)cc23)cc1Cc1ccc(C(F)(F)F)cc1 [Compound 113, N-(5,6-difluoro-1H-indol-3-yl)-1-methyl-5-(4-(trifluoromethyl)benzyl)-1H-pyrazole-3-carboxamide]",200 to 1000
15,"Cc1cc(C(=O)Nc2c[nH]c3cc(F)c(F)cc23)nn1Cc1ccc(C(F)(F)F)cc1 [Compound 114, N-(5,6-difluoro-1H-indol-3-yl)-5-methyl-1-(4-(trifluoromethyl)benzyl)-1H-pyrazole-3-carboxamide]",200 to 1000
16,"O=C(Nc1c[nH]c2ccc(F)cc12)c1cnn(Cc2ccc(C(F)(F)F)cc2)c1 [Compound 115, N-(5-fluoro-1H-indol-3-yl)-1-(4-(trifluoromethyl)benzyl)-1H-pyrazole-4-carboxamide]",200 to 1000
17,"O=C(Nc1c[nH]c2cc(F)c(F)cc12)c1cnn(C2CCCCC2)c1 [Compound 116, 1-cyclohexyl-N-(5,6-difluoro-1H-indol-3-yl)-1H-pyrazole-4-carboxamide]",1000 to 5000

row,Compound,EC50 [nM]
1,"COc1cncc2c(NC(=O)c3cnn(Cc4ccc(C(F)(F)F)cc4)c3)c[nH]c12 [Compound 117, N-(7-methoxy-1H-pyrrolo[3,2-c]pyridin-3-yl)-1-(4-(trifluoromethyl)benzyl)-1H-pyrazole-4-carboxamide]",5000 to 100000
2,"COc1ccc2[nH]cc(NC(=O)c3cnn(Cc4ccc(C(F)(F)F)cc4)c3)c2n1 [Compound 118, N-(5-methoxy-1H-pyrrolo[3,2-b]pyridin-3-yl)-1-(4-(trifluoromethyl)benzyl)-1H-pyrazole-4-carboxamide]",1000 to 5000
3,"O=C(Nc1c[nH]c2cc(F)c(F)cc12)c1cc(-c2cccnc2)[nH]n1 [Compound 119, N-(5,6-difluoro-1H-indol-3-yl)-5-(pyridin-3-yl)-1H-pyrazole-3-carboxamide]",5000 to 100000
4,"O=C(Nc1c[nH]c2cc(F)c(F)cc12)c1cnn(CC2CCC(F)(F)CC2)c1 [Compound 122, N-(5,6-difluoro-1H-indol-3-yl)-1-((4,4-difluorocyclohexyl)methyl)-1H-pyrazole-4-carboxamide]",200 to 1000
5,"N#Cc1cccc(-c2cc(C(=O)Nc3c[nH]c4cc(F)c(F)cc34)no2)c1 [Compound 123, 5-(3-cyanophenyl)-N-(5,6-difluoro-1H-indol-3-yl)isoxazole-3-carboxamide]",200 to 1000
6,"O=C(Nc1c[nH]c2cc(F)c(F)cc12)c1cnn(CCOc2cccnc2)c1 [Compound 124, N-(5,6-difluoro-1H-indol-3-yl)-1-(2-(pyridin-3-yloxy)ethyl)-1H-pyrazole-4-carboxamide]",5000 to 100000
7,"Cc1cncc2c(NC(=O)c3cnn(Cc4ccc(C(F)(F)F)cc4)c3)c[nH]c12 [Compound 125, N-(7-methyl-1H-pyrrolo[3,2-c]pyridin-3-yl)-1-(4-(trifluoromethyl)benzyl)-1H-pyrazole-4-carboxamide]",1000 to 5000
8,"COc1cc2[nH]cc(NC(=O)c3cnn(Cc4ccc(C(F)(F)F)cc4)c3)c2cn1 [Compound 126, N-(6-methoxy-1H-pyrrolo[3,2-c]pyridin-3-yl)-1-(4-(trifluoromethyl)benzyl)-1H-pyrazole-4-carboxamide]",1000 to 5000
9,"O=C(Nc1c[nH]c2cc(F)c(F)cc12)c1ccnn1CCOc1cccnc1 [Compound 127, N-(5,6-difluoro-1H-indol-3-yl)-1-(2-(pyridin-3-yloxy)ethyl)-1H-pyrazole-5-carboxamide]",5000 to 100000
10,"O=C(Nc1c[nH]c2c(F)cncc12)c1cnn(Cc2ccc(C(F)(F)F)cc2)c1 [Compound 128, N-(7-fluoro-1H-pyrrolo[3,2-c]pyridin-3-yl)-1-(4-(trifluoromethyl)benzyl)-1H-pyrazole-4-carboxamide]",200 to 1000
11,"O=C(Nc1c[nH]c2ccccc12)c1ncc(-c2ccc(C(F)(F)F)cc2)[nH]1 [Compound 129, N-(1H-indol-3-yl)-5-(4-(trifluoromethyl)phenyl)-1H-imidazole-2-carboxamide]",200 to 1000
12,"O=C(Nc1c[nH]c2ccccc12)c1cn(Cc2ccc(C(F)(F)F)cn2)cn1 [Compound 130, N-(1H-indol-3-yl)-1-((5-(trifluoromethyl)pyridin-2-yl)methyl)-1H-imidazole-4-carboxamide]",1000 to 5000
13,"O=C(Nc1c[nH]c2c(F)cncc12)c1ccn(Cc2ccc(C(F)(F)F)cc2)n1 [Compound 131, N-(7-fluoro-1H-pyrrolo[3,2-c]pyridin-3-yl)-1-(4-(trifluoromethyl)benzyl)-1H-pyrazole-3-carboxamide]",1000 to 5000
14,"O=C(Nc1c[nH]c2ccccc12)c1cncn1Cc1ccc(C(F)(F)F)c(Cl)c1 [Compound 132, 1-(3-chloro-4-(trifluoromethyl)benzyl)-N-(1H-indol-3-yl)-1H-imidazole-5-carboxamide]",1000 to 5000
15,"CC(C)n1cc(-c2ccc3[nH]cc(NC(=O)c4ccn(Cc5ccc(C(F)(F)F)cc5)n4)c3c2)cn1 [Compound 133, N-(5-(1-isopropyl-1H-pyrazol-4-yl)-1H-indol-3-yl)-1-(4-(trifluoromethyl)benzyl)-1H-pyrazole-3-carboxamide]",200 to 1000
16,"COc1ccc2[nH]cc(NC(=O)c3ccn(Cc4ccc(C(F)(F)F)cc4)n3)c2n1 [Compound 134, N-(5-methoxy-1H-pyrrolo[3,2-b]pyridin-3-yl)-1-(4-(trifluoromethyl)benzyl)-1H-pyrazole-3-carboxamide]",1000 to 5000
